Test results published in patent publication US5789434A, “Derivatives of substituted 4-biarylbutyric acid as matrix metalloprotease inhibitors” (priority 1995, dated 1998).
Non-standard residues stand in square brackets, D forms with d. Residues, ends and D or L forms follow the SMILES beside them. *: point of attachment. Dnp = O=[N+]([O-])c1ccc(*)c([N+](=O)[O-])c1; Mca = COc1ccc2c(CC(=O)*)cc(=O)oc2c1; Dap = NC[C@H](N)C(=O)O

Legend:
Assay type in all cases: biochemical
[1] = target: T1, MMP-3 (Homo sapiens, UniProt P08254); assay: Secondary P218 Quenched fluorescence Assay for MMP-3 Inhibition; conditions: for IC50: P218 substrate, pH 6.5, 25° C., x (n) = average of n determinations, read-out: MMP-3 Fluorogenic IC50
T1 construct: Truncated Prostromelysin-257 was expressed in a soluble form in E.coli; made in house; host or cells: E. coli
T1 sequence (P08254 100-274 limits assumed): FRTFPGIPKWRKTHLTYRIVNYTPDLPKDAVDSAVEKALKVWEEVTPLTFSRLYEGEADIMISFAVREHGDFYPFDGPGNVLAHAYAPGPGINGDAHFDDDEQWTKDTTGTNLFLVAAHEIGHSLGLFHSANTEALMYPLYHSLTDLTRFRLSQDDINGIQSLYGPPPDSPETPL
Description: Truncated Prostromelysin-257 was expressed in a soluble form in E.coli as described by Marcy et al., Biochemistry, 30, 6476-6483, 1991. Soluble truncated prostromelysin was purified by a modification of the monoclonal antibody affinity chromatography method described by Housley et al., J. Biol. Chem., 268, 4481-87, 1993.
The assay is run continuously in a 3.0 ml cuvette using a Perkin-Elmer LS 50 B Spectrofluorimeter at 25° C. in a final volume of 2.0 mls. P218 substrate (10 mM) in 100% DMSO is diluted to a final concentration of 2.0 micromolar (μM) into assay buffer: 50 mM MES, pH 6.5 containing 150 mM NaCl, 10 mM CaCl2, 0.005% Brij-35, and 1%(v/v) DMSO. Test compounds(10 mM) in DMSO are diluted in assay buffer at an initial concentration of 10 to 100 micromolar. […] The reaction is initiated by the addition of recombinant stromelysin (MMP-3) at a final concentration of 1.0 nM. Upon peptide cleavage, the fluorescent MCA group was detected using an excitation wavelength of 328 nanometers and an emission wavelength of 393 nanometers.

[2] = target: T1, MMP-3; assay: Primary Thiopeptilide MMP-3 Inhibition Assay; conditions: for IC50: pH 6.5, 13 nM stromelysin, x (n) = average of n determinations, read-out: MMP-3 Thiopep. IC50; for inhibition at 5 µM: read-out: MMP-3 Thiopep. % inhibition
Description: Enzyme: recombinant stromelysin expressed in E.coli and purified as described above. […] The protocols for the assay of compounds as stromelysin inhibitors was the same as that used for MMP-9 except that the assay buffer was 50 mM MES, pH 6.5 containing 150 mM NaCl, 10 mM CaCl2, 0.005% Brij, and 1% DMSO.

[3] = target: T2, MMP-9 (Homo sapiens, UniProt P14780); assay: Thiopeptilide MMP-9 Inhibition Assay; conditions: for IC50: pH 6.5, x (n) = average of n determinations, read-out: MMP-9: Thiopep. IC50; for inhibition at 5 µM: read-out: MMP-9: Thiopep. % inhibition
T2 construct: from tissue; host or cells: human polymorphonuclear leukocytes (PMN) from whole blood (New York Blood Center), PMA-stimulated supernatant
T2 sequence (P14780 107-707 limits assumed): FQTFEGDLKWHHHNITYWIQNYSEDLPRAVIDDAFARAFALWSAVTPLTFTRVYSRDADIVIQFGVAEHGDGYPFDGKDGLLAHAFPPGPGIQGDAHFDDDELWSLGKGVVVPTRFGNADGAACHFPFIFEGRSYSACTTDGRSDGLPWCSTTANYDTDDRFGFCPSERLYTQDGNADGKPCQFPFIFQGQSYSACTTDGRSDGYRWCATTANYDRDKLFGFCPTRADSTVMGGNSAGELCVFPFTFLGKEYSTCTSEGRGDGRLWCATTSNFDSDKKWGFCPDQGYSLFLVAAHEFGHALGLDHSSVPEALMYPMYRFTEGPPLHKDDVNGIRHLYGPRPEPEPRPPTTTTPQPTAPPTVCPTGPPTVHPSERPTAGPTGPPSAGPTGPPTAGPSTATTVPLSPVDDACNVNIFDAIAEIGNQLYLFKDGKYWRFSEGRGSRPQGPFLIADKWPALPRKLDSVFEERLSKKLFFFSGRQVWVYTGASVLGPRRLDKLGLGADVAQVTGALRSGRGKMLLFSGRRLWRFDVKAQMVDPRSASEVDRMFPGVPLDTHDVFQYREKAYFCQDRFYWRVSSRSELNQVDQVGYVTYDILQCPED

[4] = test system: MMP; assay: MMP inhibitory activity, comparison in words
[5] = target: T3, MMP-2 (Homo sapiens, UniProt P08253); assay: Secondary P218 Quenched fluorescence Assay for MMP-2 Inhibition; conditions: for IC50: 0.2 nM enzyme, x (n) = average of n determinations, read-out: MMP-2 Fluorogenic IC50
T3 sequence (P08253 110-660): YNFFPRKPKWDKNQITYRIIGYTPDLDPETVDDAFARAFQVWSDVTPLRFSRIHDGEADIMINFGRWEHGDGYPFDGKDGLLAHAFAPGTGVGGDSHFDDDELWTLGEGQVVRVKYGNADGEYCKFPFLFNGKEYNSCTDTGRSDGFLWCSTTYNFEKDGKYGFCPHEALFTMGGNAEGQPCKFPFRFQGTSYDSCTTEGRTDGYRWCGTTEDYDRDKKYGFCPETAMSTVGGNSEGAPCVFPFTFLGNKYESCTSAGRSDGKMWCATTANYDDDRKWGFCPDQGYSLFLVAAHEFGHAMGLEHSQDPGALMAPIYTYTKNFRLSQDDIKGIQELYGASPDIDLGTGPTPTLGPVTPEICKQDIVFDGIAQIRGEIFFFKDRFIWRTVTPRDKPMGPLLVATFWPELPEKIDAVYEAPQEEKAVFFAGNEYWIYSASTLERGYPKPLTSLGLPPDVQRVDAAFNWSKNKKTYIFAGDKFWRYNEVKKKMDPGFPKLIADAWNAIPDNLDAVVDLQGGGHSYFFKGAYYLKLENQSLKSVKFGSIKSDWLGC

[6] = target: T3, MMP-2; assay: Automated MMP Profiling Assay, MMP-2 fluorogenic; conditions: 96-well automated, P218; read-out: MMP-2 Fluorogenic IC50 (profiling)
[7] = target: T2, MMP-9; assay: Automated MMP Profiling Assay, MMP-9 fluorogenic; conditions: 96-well automated, P218
[8] = target: T1, MMP-3; assay: Automated MMP Profiling Assay, MMP-3 fluorogenic; conditions: 96-well automated, P218
Text: This assay with each invention compound was run with the three enzymes MMP-3, MMP-9 and MMP-2 in parallel as adapted for a 96-well microtitre plate using a Hamilton A® workstation.

| SMILES | IC50 [1] | IC50 [2] | IC50 [3] | further results |
| --- | --- | --- | --- | --- |
| CC(C)CC(CC(=O)c1ccc(-c2ccc(Br)cc2)cc1)C(=O)O (stereo not drawn) [Example 14, [1,1'-Biphenyl]-4-butanoic acid, 4'-bromo-α-(2-methylpropyl)-γ-oxo-] | 570 nM | 440 nM | 1200 nM | – |
| CC(=O)SC(CC(=O)c1ccc(Oc2ccc(Cl)cc2)cc1)C(=O)O (stereo not drawn) [Example 254, Benzenebutanoic acid, α-(acetylthio)-4-(4-chlorophenoxy)-γ-oxo-, reference compound] | – | – | – | MMP inhibitory activity (in words) [4]: very low potency; inhibition at 5 µM [2]: 10%; inhibition at 5 µM [3]: 27% |
| CC(C)CC(CC(=O)c1ccc(-c2ccccc2)cc1)C(=O)O (stereo not drawn) [Example 13, [1,1'-Biphenyl]-4-butanoic acid, α-(2-methylpropyl)-γ-oxo-] | – | – | – | MMP inhibitory activity (in words) [4]: low potency; inhibition at 5 µM [2]: 27%; inhibition at 5 µM [3]: 3% |
| CCOC(=O)CCc1ccc(-c2ccc(CCC(CCCc3ccccc3)C(=O)O)cc2)cc1 (stereo not drawn) [Example 44, [1,1'-Biphenyl]-4-butanoic acid, 4'-(3-ethoxy-3-oxopropyl)-α-(3-phenylpropyl)-] | 1970 nM | – | – | IC50 ([5]; P218 substrate): 1150 nM |
| O=C(O)[C@H]1[C@H](CN2C(=O)c3ccccc3C2=O)CC[C@@H]1C(=O)c1ccc(-c2ccc(Cl)cc2)cc1 [Example 361, (1S,2R,5S)-trans-5-[4-(4-chlorophenyl)phenylcarbonyl]-trans-2-phthalimidomethylcyclopentanecarboxylic acid] | – | – | – | IC50 [6]: 0.81 nM; IC50 [7]: 0.5 nM; IC50 [8]: 3 nM; MMP inhibitory activity (in words) [4]: most active |
| CC(C)CC(CC(=O)c1ccc(-c2ccc(I)cc2)cc1)C(=O)O (stereo not drawn) [Example 41, [1,1'-Biphenyl]-4-butanoic acid, 4'-iodo-α-(2-methylpropyl)-γ-oxo-] | 260 nM | 118 nM | 500 nM | – |
| CC(C)(C)C(=O)SCC(CC(=O)c1ccc(-c2ccc(Cl)cc2)cc1)C(=O)O (single isomer, unassigned) [Example 194, [1,1'-Biphenyl]-4-butanoic acid, 4'-chloro-α-[[(2,2-dimethyl-1-oxopropyl)thio]methyl]-γ-oxo-] | 62 nM | 115 nM | 750 nM | – |
| CCCCCC(CC(=O)c1ccc(-c2ccc(Cl)cc2)cc1)C(=O)O (stereo not drawn) [Example 26, [1,1'-Biphenyl]-4-butanoic acid, 4'-chloro-γ-oxo-α-pentyl-] | 240 nM | 620 nM | 4300 nM | – |
| CC(C)CC(CC(=O)O)C(=O)c1ccc(-c2ccc(Cl)cc2)cc1 (single isomer, unassigned) [Example 4, 5-methyl-3-[oxo-(4'-chloro-4-biphenyl)methyl]hexanoic acid] | 480 nM | 379 nM | 2700 nM | – |
| O=C(CC(CCCc1ccccc1)C(=O)O)c1ccc(-c2ccc(Cl)cc2)cc1 (stereo not shown) [Example 114, 4-[4-(4-chlorophenyl)phenyl]-4-oxo-2-(3-phenylpropyl)butanoic acid] | 120 nM | 244 nM | 285 nM | IC50 [6]: 68 nM; IC50 [7]: 439 nM; IC50 [8]: 246 nM; IC50 ([5]; P218 substrate): 25 nM |
| COC(=O)c1ccccc1SCC(CC(=O)c1ccc(-c2ccc(Cl)cc2)cc1)C(=O)O (stereo not drawn) [Example 244, [1,1'-Biphenyl]-4-butanoic acid, 4'-chloro-α-[[[2-(methoxycarbonyl)phenyl]thio]methyl]-γ-oxo-] | 27 nM | 79 nM | 600 nM | IC50 ([5]; P218 substrate): 7 nM |
| COc1ccc2c(CC(=O)N3CCC[C@H]3C(=O)N[C@@H](CCCCN)C(=O)N3CCC[C@H]3C(=O)N[C@@H](CC(C)C)C(=O)N[C@@H](C)C(=O)N[C@@H](CC(C)C)C(=O)N[C@@H](CNc3ccc([N+](=O)[O-])cc3[N+](=O)[O-])C(=O)N[C@@H](C)C(=O)N[C@@H](CCCNC(=N)N)C(N)=O)cc(=O)oc2c1 [Example P218] (Mca-PKPLAL[Dap](Dnp)AR-NH2) | – | – | – | turnover number of MMP-2 ([5]; P218 substrate): 400,000 |
| O=C(C[C@@H](CCCc1ccccc1)C(=O)O)c1ccc(-c2ccc(Cl)cc2)cc1 [Example 115, 4-[4-(4-chlorophenyl)phenyl]-4-oxo-2R-(3-phenylpropyl)butanoic acid] | – | – | – | IC50 [6]: 1750 nM; IC50 [7]: > 1250 nM; IC50 [8]: > 1250 nM; inhibition at 5 µM [2]: 39%; inhibition at 5 µM [3]: 31% |
| O=C(O)[C@@H]1CC[C@H]1C(=O)c1ccc(-c2ccc(Cl)cc2)cc1 (relative stereo) [Example 291, Cyclobutanecarboxylic acid, 2-[(4'-chloro[1,1'-biphenyl]-4-yl)carbonyl]-, trans-] | – | 437 nM | 2700 nM | MMP inhibitory activity (in words) [4]: much more active |
| CCCCCOc1ccc(-c2ccc(C(=O)CC(CCCc3ccccc3)C(=O)O)cc2)cc1 (stereo not shown) [Example 85, 4-[4-(4-pentyloxyphenyl)phenyl]-4-oxo-2-(3-phenylpropyl)butanoic acid] | – | 37 nM | – | IC50 [6]: 32 nM; IC50 [7]: 767 nM; IC50 [8]: 80 nM; inhibition at 5 µM [3]: 44% |
| O=C(O)[C@@H]1[C@@H](C(=O)c2ccc(-c3ccc(Cl)cc3)cc2)CC[C@H]1Sc1ccccc1 (relative stereo) [Example 294, trans-5-[4-(4-chlorophenyl)phenylcarbonyl]-trans-^2-phenylthiocyclopentanecarboxylic acid] | 14 nM | 47 nM | 56 nM | IC50 [6]: 11 nM; IC50 [7]: 176 nM; IC50 [8]: 58 nM; IC50 ([5]; P218 substrate): 4 nM |
| CCOC(=O)/C=C/c1ccc(-c2ccc(C(=O)CC(CCCc3ccccc3)C(=O)O)cc2)cc1 (stereo not drawn) [Example 42, [1,1'-Biphenyl]-4-butanoic acid, 4'-(3-ethoxy-3-oxo-1-propenyl)-γ-oxo-α-(3-phenylproyl)-, (E)-] | 48 nM | – | – | IC50 ([5]; P218 substrate): 21 nM |
| CC(C)CC(CC(=O)c1ccc(-c2ccc(Cl)cc2)cc1)C(=O)O (stereo not drawn) [Example 1, [1,1'-Biphenyl]-4-butanoic acid, 4'-chloro-α-(2-methylpropyl)-γ-oxo-] | 805 nM | 486 nM | 1000 nM | – |
| O=C(O)CCc1ccc(-c2ccc(CCC(CCCc3ccccc3)C(=O)O)cc2)cc1 (stereo not drawn) [Example 45, [1,1'-Biphenyl]-4-butanoic acid, 4'-(2-carboxyethyl)-α-(3-phenylpropyl)-] | – | – | – | inhibition at 5 µM ([1]; at 5 μM, read-out: MMP-3 Fluorogenic % inhibition): 43%; inhibition at 5 µM ([5]; at 5 μM, read-out: MMP-2 Fluorogenic % inhibition): 56% |
| O=C(CC(Cc1ccccc1)C(=O)O)c1ccc(-c2ccc(Cl)cc2)cc1 (stereo not drawn) [Example 131, [1,1'-Biphenyl]-4-butanoic acid, 4'-chloro-γ-oxo-α-(phenylmethyl)-] | 900 nM | 310 nM | – | – |
| CC(C)(C)C(=O)SCC(CC(=O)c1ccc(-c2ccc(Cl)cc2)cc1)C(=O)O (stereo not drawn) [Example 193, [1,1'-Biphenyl]-4-butanoic acid, 4'-chloro-α-[[(2,2-dimethyl-1-oxopropyl)thio]methyl]-γ-oxo-] | 150 nM | 153 nM | 2450 nM | IC50 ([5]; P218 substrate): 40 nM |
| O=C(O)[C@@H]1[C@@H](Sc2ccccc2)CC[C@H]1C(=O)c1ccc(-c2ccc(Cl)cc2)cc1 [Example 297, (1R,2S,5R)-trans-5-[4-(4-chlorophenyl)phenylcarbonyl]-trans-2-phenylthiocyclopentanecarboxylic acid] | – | – | 640 nM | IC50 [6]: 2070 nM; IC50 [7]: 2370 nM; IC50 [8]: 5750 nM |
